Values after ≈ are worked out from the molar mass of the structure shown. Read-outs that look alike come from different tables or passages of the source.
Assays:
Septoria tritici (St) = test: Growth inhibition assay of fungal pathogens, St; format: cell-based; conditions: Zymoseptoria tritici, 48 h, growth inhibition at 48 hours vs 2% DMSO control
In short: (§1)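 Spores from sub-cultured plates were diluted in 17% V8 liquid medium and exposed to compound from DMSO stocks at final concentrations of 50, 10 and 2 ppm or 2, 0.4 and 0.08 ppm. OD600 and visual ratings at 48 h were compared with the 2% DMSO control to give percent growth inhibition.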

Diplodia maydis (Dm) = test: Growth inhibition assay of fungal pathogens, Dm; format: cell-based; conditions: Stenocarpella maydis, 48 h, growth inhibition at 48 hours vs 2% DMSO control
In short: as §1

C. krusei = test: Antifungal Activity Assay (broth microtiter MIC), C. krusei; format: cell-based, Candida krusei; conditions: Pichia kudriavzevii, ATCC6258, 48 h
In short: (§2)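 Susceptibility was determined by CLSI M27-A3 broth microdilution in RPMI 1640 buffered with MOPS. Growth inhibition was scored visually after 48 h.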

Botrtyis cinerea (Bc) = test: Growth inhibition assay of fungal pathogens, Bc; format: cell-based; conditions: 48 h, growth inhibition at 48 hours vs 2% DMSO control
In short: as §1

C. albicans = test: Antifungal Activity Assay (broth microtiter MIC), C. albicans; format: cell-based, Candida albicans; conditions: Candida albicans, ATCC90028, 48 h
In short: as §2

[1] = test system: Collectotrichum graminicola (Cg); test: Growth inhibition assay of fungal pathogens, Cg; format: cell-based; conditions: 48 h, growth inhibition at 48 hours vs 2% DMSO control
In short: as §1

[2] = test system: Phytophthora capsici (Pc); test: Growth inhibition assay of fungal pathogens, Pc; format: cell-based; conditions: 48 h
In short: as §1

Rhizoctonia solani (Rs) = test: Growth inhibition assay of fungal pathogens, Rs; format: cell-based; conditions: 48 h
[3] = test system: Fusarium moniliforme (Fm); test: Growth inhibition assay of fungal pathogens, Fm; format: cell-based; conditions: Fusarium verticillioides, 48 h, read-out: Concentration at 90% Inhibition Fm
In short: as §1

[4] = test system: Fusarium virguliforme (Fv); test: Growth inhibition assay of fungal pathogens, Fv; format: cell-based; conditions: 48 h
In short: as §1

C. parapsilosis = test: Antifungal Activity Assay (broth microtiter MIC), C. parapsilosis; format: cell-based, Candida parapsilosis; conditions: Lodderomyces parapsilosis, ATCC22019, 48 h
In short: as §2

fungal (fACC2) = fungal (fACC2) (UniProt Q00955); conditions: read-out: fACC2 (in vitro ACC2 Inhibition Assay, IC50); Table 2b, additional results; ADP-Glo, 5 nM ACC2, 20 μM ATP, 20 μM acetyl-CoA
fungal (fACC2), sequence (Q00955 whole entry): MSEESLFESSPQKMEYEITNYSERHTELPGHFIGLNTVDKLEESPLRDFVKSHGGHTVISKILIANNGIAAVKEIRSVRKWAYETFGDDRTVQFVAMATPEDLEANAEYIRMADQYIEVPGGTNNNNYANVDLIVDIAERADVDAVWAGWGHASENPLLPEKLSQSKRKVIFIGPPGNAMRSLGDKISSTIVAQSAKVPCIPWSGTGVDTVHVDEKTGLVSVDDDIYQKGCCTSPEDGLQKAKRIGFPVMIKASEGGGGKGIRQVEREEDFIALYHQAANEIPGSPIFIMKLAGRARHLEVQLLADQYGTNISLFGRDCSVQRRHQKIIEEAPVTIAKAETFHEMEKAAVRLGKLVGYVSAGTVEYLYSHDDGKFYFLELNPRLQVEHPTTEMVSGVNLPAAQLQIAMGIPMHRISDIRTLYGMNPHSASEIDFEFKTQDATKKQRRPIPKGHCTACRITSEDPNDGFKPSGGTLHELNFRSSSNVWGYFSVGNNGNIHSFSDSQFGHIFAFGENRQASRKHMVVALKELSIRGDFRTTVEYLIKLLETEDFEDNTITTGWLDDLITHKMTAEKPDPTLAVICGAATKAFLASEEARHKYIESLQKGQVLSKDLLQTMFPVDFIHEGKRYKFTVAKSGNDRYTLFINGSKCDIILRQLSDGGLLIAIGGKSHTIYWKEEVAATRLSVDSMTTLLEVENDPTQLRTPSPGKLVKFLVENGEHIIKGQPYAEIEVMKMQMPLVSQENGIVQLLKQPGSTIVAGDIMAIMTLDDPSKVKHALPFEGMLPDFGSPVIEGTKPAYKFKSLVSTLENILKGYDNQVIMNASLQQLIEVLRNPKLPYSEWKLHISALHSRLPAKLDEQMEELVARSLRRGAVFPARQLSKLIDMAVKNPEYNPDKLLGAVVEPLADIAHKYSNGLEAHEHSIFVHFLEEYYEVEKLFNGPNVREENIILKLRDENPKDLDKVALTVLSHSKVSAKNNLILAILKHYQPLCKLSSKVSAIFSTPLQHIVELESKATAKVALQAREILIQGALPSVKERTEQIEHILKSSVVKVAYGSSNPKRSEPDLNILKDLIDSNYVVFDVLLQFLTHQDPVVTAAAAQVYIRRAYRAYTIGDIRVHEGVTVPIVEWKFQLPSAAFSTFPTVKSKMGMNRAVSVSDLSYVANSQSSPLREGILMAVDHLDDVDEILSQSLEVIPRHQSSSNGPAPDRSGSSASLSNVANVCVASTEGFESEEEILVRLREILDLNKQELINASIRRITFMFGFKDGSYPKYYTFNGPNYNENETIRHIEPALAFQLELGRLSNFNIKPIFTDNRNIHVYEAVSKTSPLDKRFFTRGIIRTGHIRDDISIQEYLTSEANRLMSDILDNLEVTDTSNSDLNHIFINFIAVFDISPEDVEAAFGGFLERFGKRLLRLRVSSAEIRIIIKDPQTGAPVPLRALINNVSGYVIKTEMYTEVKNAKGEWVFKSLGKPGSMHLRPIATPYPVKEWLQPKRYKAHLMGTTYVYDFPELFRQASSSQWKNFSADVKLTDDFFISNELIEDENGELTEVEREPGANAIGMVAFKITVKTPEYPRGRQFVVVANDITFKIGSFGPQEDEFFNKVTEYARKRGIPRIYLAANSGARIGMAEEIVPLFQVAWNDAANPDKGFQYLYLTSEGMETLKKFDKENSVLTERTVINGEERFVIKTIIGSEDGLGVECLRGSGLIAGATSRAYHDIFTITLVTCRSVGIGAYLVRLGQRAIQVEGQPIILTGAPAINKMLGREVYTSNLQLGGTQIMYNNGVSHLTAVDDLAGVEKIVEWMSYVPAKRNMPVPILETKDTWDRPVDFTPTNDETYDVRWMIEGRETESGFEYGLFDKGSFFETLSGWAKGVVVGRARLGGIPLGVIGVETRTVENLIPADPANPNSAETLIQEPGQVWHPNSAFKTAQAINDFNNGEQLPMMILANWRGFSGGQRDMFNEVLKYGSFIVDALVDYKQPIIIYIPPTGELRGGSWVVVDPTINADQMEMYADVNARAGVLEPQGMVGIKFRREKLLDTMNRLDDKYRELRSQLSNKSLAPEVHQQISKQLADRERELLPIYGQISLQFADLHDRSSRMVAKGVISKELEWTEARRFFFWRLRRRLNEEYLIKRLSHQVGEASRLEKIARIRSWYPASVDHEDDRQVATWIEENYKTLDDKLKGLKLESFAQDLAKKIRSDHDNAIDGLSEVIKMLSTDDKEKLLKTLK

human (hACC2) = human (hACC2) (Homo sapiens, UniProt O00763); test: In vitro ACC inhibition assay (ADP-Glo), hACC2; format: biochemical; conditions: Table 2b, additional results, 5 nM ACC2, 20 μM ATP, 20 μM acetyl-CoA
human (hACC2), sequence (O00763 whole entry): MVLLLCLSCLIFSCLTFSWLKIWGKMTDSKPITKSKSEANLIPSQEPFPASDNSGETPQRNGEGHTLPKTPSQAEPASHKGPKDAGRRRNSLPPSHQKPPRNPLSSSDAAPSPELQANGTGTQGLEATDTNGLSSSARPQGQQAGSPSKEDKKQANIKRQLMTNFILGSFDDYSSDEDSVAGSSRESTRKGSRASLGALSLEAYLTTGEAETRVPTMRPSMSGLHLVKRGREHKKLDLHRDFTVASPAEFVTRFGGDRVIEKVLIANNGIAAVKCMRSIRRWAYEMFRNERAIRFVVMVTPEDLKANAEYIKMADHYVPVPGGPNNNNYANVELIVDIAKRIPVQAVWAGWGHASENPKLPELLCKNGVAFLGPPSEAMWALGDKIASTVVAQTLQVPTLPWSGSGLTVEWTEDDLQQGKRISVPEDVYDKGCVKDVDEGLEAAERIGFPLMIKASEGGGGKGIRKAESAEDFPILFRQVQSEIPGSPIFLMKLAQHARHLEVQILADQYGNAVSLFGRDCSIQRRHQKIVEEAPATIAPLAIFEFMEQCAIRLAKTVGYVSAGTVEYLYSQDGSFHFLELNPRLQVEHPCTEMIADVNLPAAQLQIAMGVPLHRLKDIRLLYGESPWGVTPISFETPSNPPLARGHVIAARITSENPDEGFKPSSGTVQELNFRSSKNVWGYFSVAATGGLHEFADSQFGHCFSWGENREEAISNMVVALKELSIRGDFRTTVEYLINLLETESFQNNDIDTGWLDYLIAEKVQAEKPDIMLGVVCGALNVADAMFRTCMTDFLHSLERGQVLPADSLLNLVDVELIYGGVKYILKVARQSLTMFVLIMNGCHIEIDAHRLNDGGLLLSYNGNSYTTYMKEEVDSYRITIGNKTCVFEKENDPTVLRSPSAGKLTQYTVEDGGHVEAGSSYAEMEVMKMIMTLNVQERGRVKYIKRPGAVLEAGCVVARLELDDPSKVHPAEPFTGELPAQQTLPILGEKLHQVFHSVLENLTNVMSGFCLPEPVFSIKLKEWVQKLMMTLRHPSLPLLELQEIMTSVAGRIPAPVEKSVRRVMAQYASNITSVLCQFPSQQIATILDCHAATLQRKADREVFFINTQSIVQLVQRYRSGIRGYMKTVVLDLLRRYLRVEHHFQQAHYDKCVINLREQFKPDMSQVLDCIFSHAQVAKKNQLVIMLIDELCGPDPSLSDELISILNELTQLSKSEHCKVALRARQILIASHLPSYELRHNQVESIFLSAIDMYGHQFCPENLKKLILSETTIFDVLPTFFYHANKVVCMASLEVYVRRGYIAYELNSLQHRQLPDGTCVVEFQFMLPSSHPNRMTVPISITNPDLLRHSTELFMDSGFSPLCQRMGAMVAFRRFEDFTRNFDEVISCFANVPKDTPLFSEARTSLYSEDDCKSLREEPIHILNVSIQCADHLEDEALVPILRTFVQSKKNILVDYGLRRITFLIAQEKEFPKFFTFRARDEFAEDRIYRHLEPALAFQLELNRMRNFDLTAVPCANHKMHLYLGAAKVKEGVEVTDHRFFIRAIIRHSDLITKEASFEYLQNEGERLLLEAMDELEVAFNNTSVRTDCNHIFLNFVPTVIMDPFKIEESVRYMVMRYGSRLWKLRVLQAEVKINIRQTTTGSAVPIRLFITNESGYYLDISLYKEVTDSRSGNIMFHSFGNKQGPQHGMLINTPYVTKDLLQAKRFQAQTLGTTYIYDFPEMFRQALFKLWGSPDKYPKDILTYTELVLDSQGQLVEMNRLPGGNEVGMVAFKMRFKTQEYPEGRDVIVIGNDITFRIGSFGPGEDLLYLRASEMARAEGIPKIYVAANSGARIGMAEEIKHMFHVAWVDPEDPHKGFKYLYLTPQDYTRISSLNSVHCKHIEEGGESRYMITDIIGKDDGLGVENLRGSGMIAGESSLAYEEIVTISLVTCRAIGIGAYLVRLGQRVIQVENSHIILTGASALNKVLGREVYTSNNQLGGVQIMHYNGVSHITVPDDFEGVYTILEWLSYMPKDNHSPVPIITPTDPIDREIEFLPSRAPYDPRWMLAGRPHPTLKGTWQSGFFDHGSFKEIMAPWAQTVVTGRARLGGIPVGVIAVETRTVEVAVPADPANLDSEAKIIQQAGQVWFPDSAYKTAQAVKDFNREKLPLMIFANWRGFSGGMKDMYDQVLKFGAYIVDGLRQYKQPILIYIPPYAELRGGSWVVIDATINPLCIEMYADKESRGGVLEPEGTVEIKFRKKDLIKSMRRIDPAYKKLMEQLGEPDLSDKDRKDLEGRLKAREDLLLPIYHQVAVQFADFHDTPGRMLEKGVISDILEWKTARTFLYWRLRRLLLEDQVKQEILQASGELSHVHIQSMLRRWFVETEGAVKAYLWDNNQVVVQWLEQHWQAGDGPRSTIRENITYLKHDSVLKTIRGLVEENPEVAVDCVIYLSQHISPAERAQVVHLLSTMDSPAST
Protocol: The detailed procedure is as follows. […] 10 μL ADP glo reagent was added. […] 20 μL kinase detection reagent was added.

[5] = read-out: Concentration at 90% Inhibition St, Septoria tritici
[6] = read-out: Concentration at 90% Inhibition Dm, Diplodia maydis
[7] = read-out: MIC, C. krusei ATCC 6258, Table 3b (additional results), 3 replicates, MIC recorded at 48 h
[8] = read-out: Concentration at 90% Inhibition Bc, Botrtyis cinerea
[9] = read-out: MIC, C. albicans ATCC 90028, Table 3b (additional results), 3 replicates, MIC recorded at 48 h
[10] = read-out: Concentration at 90% Inhibition Cg, Collectotrichum graminicola
[11] = read-out: Concentration at 90% Inhibition Pc, Phytophthora capsici, growth inhibition at 48 hours vs 2% DMSO control
[12] = read-out: Concentration at 90% Inhibition Rs, Rhizoctonia solani, mycelial plugs, growth inhibition at 48 hours vs 2% DMSO control
[13] = read-out: Concentration at 90% Inhibition Fv, Fusarium virguliforme, growth inhibition at 48 hours vs 2% DMSO control
[14] = read-out: MIC, C. parapsilosis ATCC 22019, Table 3b (additional results), 3 replicates, MIC recorded at 48 h
[15] = Septoria tritici, read-out: Concentration at 90% Inhibition St
[16] = Diplodia maydis, read-out: Concentration at 90% Inhibition Dm
[17] = Table 3b (additional results), ATCC 6258, 3 replicates, MIC recorded at 48 h, read-out: MIC, C. krusei ATCC 6258
[18] = Botrtyis cinerea, read-out: Concentration at 90% Inhibition Bc
[19] = Table 3b (additional results), ATCC 90028, 3 replicates, MIC recorded at 48 h, read-out: MIC, C. albicans ATCC 90028
[20] = Collectotrichum graminicola, read-out: Concentration at 90% Inhibition Cg
[21] = growth inhibition at 48 hours vs 2% DMSO control, read-out: Concentration at 90% Inhibition Pc
[22] = mycelial plugs, growth inhibition at 48 hours vs 2% DMSO control, read-out: Concentration at 90% Inhibition Rs
[23] = Fusarium moniliforme, growth inhibition at 48 hours vs 2% DMSO control
[24] = growth inhibition at 48 hours vs 2% DMSO control, read-out: Concentration at 90% Inhibition Fv
[25] = Table 3b (additional results), ATCC 22019, 3 replicates, MIC recorded at 48 h, read-out: MIC, C. parapsilosis ATCC 22019

Row | Structure (SMILES) | IC90 (Septoria tritici (St); [5]) | IC90 (Diplodia maydis (Dm); [6]) | MIC (C. krusei; [7]) | IC90 (Botrtyis cinerea (Bc); [8]) | MIC (C. albicans; [9]) | IC90 [1, 10] | IC90 [2, 11] | IC50 (fungal (fACC2)) | IC50 (human (hACC2)) | IC90 (Septoria tritici (St); [15]) | IC90 (Diplodia maydis (Dm); [16]) | MIC (C. krusei; [17]) | IC90 (Botrtyis cinerea (Bc); [18]) | MIC (C. albicans; [19]) | IC90 [1, 20] | IC90 [2, 21] | IC90 (Rhizoctonia solani (Rs); [22]) | IC90 [3, 23] | IC90 [4, 24] | MIC (C. parapsilosis; [25]) | further results
1 | COc1ccc(F)cc1[C@H](Cn1c(=O)n(C(C)(C)C(=O)NC(C)C)c(=O)c2c(C)c(-n3nccn3)sc21)OCCS(C)(=O)=O [Compound I-248] | > 50 µg/mL | 0.4 µg/mL (≈ 0.615 µM) | 1.01 to 2 µg/mL (≈ 1.55 to 3.07 µM) | 2 µg/mL (≈ 3.07 µM) | 1.01 to 2 µg/mL (≈ 1.55 to 3.07 µM) | 0.4 µg/mL (≈ 0.615 µM) | 10 µg/mL (≈ 15.4 µM) | 0.3 to 1 nM | 10 to 40 nM | – | – | – | – | – | – | – | – | – | – | – | IC90 (Rhizoctonia solani (Rs); [12]): 0.08 µg/mL (≈ 0.123 µM); IC90 [3]: 0.4 µg/mL (≈ 0.615 µM); IC90 [4, 13]: 2 µg/mL (≈ 3.07 µM); MIC (C. parapsilosis; [14]): 1.01 to 2 µg/mL (≈ 1.55 to 3.07 µM)
2 | COc1ccccc1[C@H](O)Cn1c(=O)n(C(C)(C)C(=O)NC(C)C)c(=O)c2c(C)c(-n3nccn3)sc21 [Compound I-251] | > 50 µg/mL | > 50 µg/mL | 0.25 to 1 µg/mL (≈ 0.475 to 1.9 µM) | 10 µg/mL (≈ 19 µM) | 1.01 to 2 µg/mL (≈ 1.92 to 3.8 µM) | > 50 µg/mL | > 50 µg/mL | 1 to 5 nM | 10 to 40 nM | – | – | – | – | – | – | – | – | – | – | – | IC90 (Rhizoctonia solani (Rs); [12]): 2 µg/mL (≈ 3.8 µM); IC90 [3]: 2 µg/mL (≈ 3.8 µM); IC90 [4, 13]: 2 µg/mL (≈ 3.8 µM); MIC (C. parapsilosis; [14]): 0.25 to 1 µg/mL (≈ 0.475 to 1.9 µM)
3 | CCNC(=O)[C@@H](C)n1c(=O)c2c(C)c(-n3nccn3)sc2n(C[C@H](OCCC#N)c2cc(F)ccc2OC)c1=O [Compound I-252] | – | – | – | – | – | – | – | 1 to 5 nM | 1 to 5 nM | > 50 µg/mL | 0.4 µg/mL (≈ 0.702 µM) | > 4.01 µg/mL | 2 µg/mL (≈ 3.51 µM) | > 4.01 µg/mL | 0.08 µg/mL (≈ 0.14 µM) | 10 µg/mL (≈ 17.6 µM) | 0.08 µg/mL (≈ 0.14 µM) | 0.08 µg/mL (≈ 0.14 µM) | 0.4 µg/mL (≈ 0.702 µM) | 2.01 to 4 µg/mL (≈ 3.53 to 7.02 µM) | –
4 | CCNC(=O)[C@H](C)n1c(=O)c2c(C)c(-n3nccn3)sc2n(C[C@H](OCCC#N)c2cc(F)ccc2OC)c1=O [Compound I-253] | – | – | – | – | – | – | – | 0.3 to 1 nM | 5 to 10 nM | > 50 µg/mL | 10 µg/mL (≈ 17.6 µM) | > 4.01 µg/mL | 2 µg/mL (≈ 3.51 µM) | > 4.01 µg/mL | 10 µg/mL (≈ 17.6 µM) | > 50 µg/mL | 2 µg/mL (≈ 3.51 µM) | 0.4 µg/mL (≈ 0.702 µM) | 10 µg/mL (≈ 17.6 µM) | 2.01 to 4 µg/mL (≈ 3.53 to 7.02 µM) | –
5 | CCNC(=O)C(C)(C)n1c(=O)c2c(C)c(-n3nccn3)sc2n(C[C@@H](O)c2cc(F)ccc2OC)c1=O [Compound I-254] | – | – | – | – | – | – | – | 1 to 5 nM | > 40 nM | > 50 µg/mL | > 50 µg/mL | 2.01 to 4 µg/mL (≈ 3.79 to 7.54 µM) | > 50 µg/mL | 2.01 to 4 µg/mL (≈ 3.79 to 7.54 µM) | > 50 µg/mL | > 50 µg/mL | 2 µg/mL (≈ 3.77 µM) | 10 µg/mL (≈ 18.8 µM) | > 50 µg/mL | 2.01 to 4 µg/mL (≈ 3.79 to 7.54 µM) | –
6 | CCNC(=O)C(C)(C)n1c(=O)c2c(C)c(-n3nccn3)sc2n(C[C@H](O)c2cc(F)ccc2OC)c1=O [Compound I-255] | – | – | – | – | – | – | – | 0.3 to 1 nM | 10 to 40 nM | > 50 µg/mL | 2 µg/mL (≈ 3.77 µM) | 2.01 to 4 µg/mL (≈ 3.79 to 7.54 µM) | 2 µg/mL (≈ 3.77 µM) | 2.01 to 4 µg/mL (≈ 3.79 to 7.54 µM) | 2 µg/mL (≈ 3.77 µM) | > 50 µg/mL | 0.4 µg/mL (≈ 0.754 µM) | 0.08 µg/mL (≈ 0.151 µM) | 0.4 µg/mL (≈ 0.754 µM) | 2.01 to 4 µg/mL (≈ 3.79 to 7.54 µM) | –
